Test results published in US11518735B2 (AE KYUNG INDUSTRIAL CO., LTD, priority 2017, dated 2022).
Entries after “also recorded” stand apart in the source; their conditions may differ.

Test: Thermal stability by HPLC analysis, samples heated in oven at 90° C.
Type: physicochemical
Details: for HPLC peak area: 90° C. oven; for change in peak area (degree of decomposition): after 24 hours versus initial peak area
Protocol: The thermal stability tests were conducted by heating the compound samples of Formulas 3 and 7 in an oven maintained at 90° C. and measuring the degree of decomposition of each sample.

| HPLC peak area (0 hour) | HPLC peak area (3 hours) | HPLC peak area (6 hours) | HPLC peak area (24 hours) | HPLC peak area (1 hour) | SMILES | change in peak area (degree of decomposition) (90° C.) | high-temperature stability compared with Formula 7 (HPLC, 90° C.) |
| --- | --- | --- | --- | --- | --- | --- | --- |
| 21694395 | 10982003 | 11400622 | 7124834 | – | CCCCCCCC/C=C/CCCCCCCCNC(=O)CC(/C=C/CCCCCCCCCCCCCCCC)C(=O)O (stereo not shown) [Formula 7, reference compound] | nearly one third of the initial peak area | – |
| 22760548 | – | – | 22896857 | 22871539 | CCCCCCCCCC/C=C/C(CC(=O)NCCCCCCCCCCCCCCCCCC)C(=O)O (stereo not shown) [Formula 3] | little change in the peak area ratio | better high-temperature stability; also recorded: improved stability |
